Experimental data published in patent publication US20110190249A1, “THERAPEUTIC METHODS AND USES OF SAPOGENINS AND THEIR DERIVATIVES” (PHYTOPHARM PLC, priority 2002, published 2011).
Marks after values point to notes of the source that are not given here.

How the values were obtained:
[1] = tested on: muscarinic acetylcholine receptor; test: Brain muscarinic acetylcholine receptor density in aged rats (dual-site competitive ligand binding); type: in vivo, rat; conditions: 18 mg kg−1 day−1 oral, 2-3 months
Procedure: (§1) Aged Sprague-Dawley rats aged were divided into different groups, one control and groups treated for 2-3 months with either sarsasapogenin, episarsasapogenin cathylate or smilagenin (18 mg kg^−1 day^−1, n=10). A control group (n=14) of untreated young rats was also included in the study. The daily dose of drug was mixed in a minimum amount of food and was administered every morning separately to each rat.
Muscarinic acetylcholine receptor density in the brain was measured. Tissue was prepared as follows: brains were removed quickly after decapitation, frozen in dry ice, and transferred to a freezer. The brains were homogenised and the pellet was finally suspended in buffer.
The dual-site competitive ligand binding assay was used to measure muscarinic acetylcholine receptor density.

[2] = tested on: muscarinic acetylcholine receptor; test: Brain M receptor density (3H-QNB) in amyloid β + ibotenic acid rat model; type: in vivo; conditions: 18 mg/kg/day gastric tube, two months; model 713 ± 48, control 859 ± 101
Procedure: (§2) An in vivo model of Alzheimer's disease was used to model neurodegeneration. In this model the neurotoxic agents (amyloid β and ibotenic acid) are injected into the brain of the rat. This leads to neuronal loss, receptor loss and cognitive impairment. […] In addition the co-injection of amyloid β with a small amount of ibotenic acid into the rat hippocampus synergistically produces neuronal loss with infiltration of glial cells not only adjacent but also far from the injected site (Morimoto et al., 1998: Neuroscience, 84, 479-487).
(§3) Our studies used the method of Morimoto (Morimoto et al., 1998: Neuroscience, 84, 479-487) with some modifications (unilateral instead of bilateral injection). Three months old, Sprague Dawley rats, were randomly divided into different groups. Injection of amyloid β1-40 and ibotenic acid (both from Sigma) was accomplished by means of a stereotaxic instrument (Stoelting Co.) and the coordinates were AP=−0.5 mm […], L=−2.8 mm […], H=−7.0 mm (ventral to dura). The dose for each rat was amyloid β1-40 (4 μg) and ibotenic acid (1 μg) in 1 μl of saline. The injection was completed in 20 min, and the needle was withdrawn 10 min later. Then the skin was sutured.
(§4) The 8 groups were: • Operated control injected with normal saline (control) • Model (control injected with amyloid β+ibotenic acid) • Model+Episarsasapogenin cathylate (18 mg/kg/day)* • Model+Sarsasapogenin cathylate (18 mg/kg/day)* • Model+Episarsasapogenin ethylsuccinate (18 mg/kg/day) (comparison) • Model+Episarsasapogenin (18 mg/kg/day)* • Model+Epismilagenin (18 mg/kg/day)* • Model+Diosgenin (i.e. negative control, 18 mg/kg/day)
(§5) Episarsasapogenin cathylate, sarsasapogenin cathylate, episarsasapogenin ethylsuccinate (comparison compound), episarsasapogenin, epismilagenin and diosgenin (all at a dosage of 18 mg/kg/day) were administered to animals as stable suspensions in CMC—Na (0.5%) once daily through a gastric tube. The control and the model group were given the same volume of CMC—Na (0.5%) once daily. The drugs and vehicles were given for a period of two months, starting 20 days before operation.
Muscarinic acetylcholine receptor density was assessed. The brain samples were homogenised, centrifuged, and the pellet of centrifugation at 27000×g was re-homogenised and used for measurement. The concentration of ^3H-QNB was chosen at the saturation range. After incubation and separation, the bound portion was measured by liquid scintillation counter.

[3] = tested on: Sprague Dawley rats injected with amyloid β1-40 and ibotenic acid; test: Step-through test in amyloid β + ibotenic acid rat model; type: in vivo; conditions: 18 mg/kg/day gastric tube, two months; errors in 5 min; model 4.00 ± 2.40, control 0.60 ± 0.70
Procedure: as §2, §3, §4, §5
Step-Through Test: learning and memory. The effect of test compounds on learning and memory was assessed using the step-through test. A 60×15×15 cm box, divided into 2 equally sized rooms, one dark room with copper rod base, which was electrically charged (40 V ac) when in use, while the other was a light room but not electrically charged. Between the two rooms there is an opening (hole) for the rat to go through. The experiment is carried out for each rat on two consecutive days. The first day is for training; when the rat is adapted in the box for the first 3 min, then put in the light room, with its back toward the hole, and the copper rods of the dark room are charged for 5 min. The second day is for testing, when the number of crosses in 5 min are recorded. Improvements in memory are signalled by a reduction in the number of crosses.

aged Sprague-Dawley rats = test: Y-maze learning and memory test in aged rats; type: in vivo, rat; conditions: 18 mg kg−1 day−1 oral in food, 3 months
Procedure: as §1
A Y-maze apparatus was used for the learning and memory test. On the floor of each arm of the Y-maze is an array of copper rods to which electric current is applied whenever needed, with adjustable voltage. Each arm is 45 cm long and has a 15 W lamp at the end, which is turned on when needed. After 3 months drug administration, each rat was trained for 7 consecutive days, as follows. For each training session, the rat was put into one arm of the Y-maze, after two minutes rest, an electrical current was applied to the copper rods and the lamp of the clockwise arm was illuminated to indicate the non-stimulation area. If the rat went into that arm, one correct response was recorded, otherwise, one wrong response was recorded: This stimulation-response test was repeated 20 times each day, with a pause of 5 sec between each two consecutive tests. The number of correct responses following the twenty tests on the seventh day was used to express learning ability, (the higher the number the better the learning ability). The rats were then left resting for 30 days and the procedure was repeated once more. The number of correct responses of the 20 tests after the 30 day rest period was used to represent the memory ability

[4] = tested on: rat primary cortical neurones; test: Prevention of glutamate-induced neurodegeneration (LDH release), pre-treatment; type: cell-based; conditions: 30 nM, given 24 h before glutamate; LDH 24 h after glutamate; control = 100
Procedure: The objective of this study was to examine the effects of sarsasapogenin, episarsasapogenin cathylate, episarsasapogenin, epismilagenin and smilagenin on the survival of rat primary cortical neurones exposed to glutamate, which is known to induce neuro degeneration.
Rat cortical neurones were cultured for 10 days; at day 10 the medium was changed to a serum-free defined medium. On day 12, 24 hours before glutamate exposure, cultures were washed and medium was replaced with fresh medium containing positive control (β-oestradiol), test compounds (sarsasapogenin, episarsasapogenin cathylate, episarsasapogenin, epismilagenin and smilagenin) or vehicle control (DMSO, 0.25%) or diosgenin as negative control.
On day 13, cultures were exposed to glutamate. After the incubation period, the cultures were washed with and placed in fresh medium, supplemented with relevant compounds or vehicle to evaluate their protective effects, 24 h after glutamate exposure.
(§6) Neuronal cell survival was evaluated by measuring lactate dehydrogenase (LDH) activity released in the media 24 h after test compound treatment or glutamate+test compound exposure, using the CytoTox 96 non-radioactive kit and quantitated by measuring wavelength absorbance at 450 nm.

[5] = tested on: rat primary cortical neurones; test: Neurite outgrowth in rat primary cortical neurones; type: cell-based; conditions: for Number of neurones displaying neurites, Mean ± s.e.m (%): control 47 ± 2; for Neurite length measured using optical micrometry, Mean ± s.e.m (%): control 100 ± 4
From the text: Neurodegenerative disorders are characterised by a progressive loss of neurones and degradation of neuronal processes (neurites). Agents that induce neurite outgrowth may promote the formation of new connections between neurones and ameliorate the symptoms of neurodegenerative conditions (Katzman et al, Faseb J., 5, 278-286, 1991).

[6] = tested on: progressive motor neuropathy (pmn) mice; test: Survival and behaviour of pmn mice (Charcot-Marie-Tooth model); type: in vivo; conditions: pmn mouse
From the text: Amyotrophic lateral sclerosis (ALS) is a progressive fatal neurodegenerative disorder that causes motor neurone degeneration, […], paralysis and death. The cause of this disease is heterogeneous: mutations in the Cu/Zn superoxide dismutase (SOD-1) gene is responsible for some forms of human ALS. Animal models of this disease include the SOD-1 transgenic mice over-expressing SOD-1 gene and the progressive motor neuropathy (pmn, a model of Charcot-Marie-Tooth) mice.

dopamine (D) 2 receptor = test: Dopamine D2 receptor density in aged rats; type: in vivo, rat; conditions: aged rats treated 3 months; aged untreated 153.8±40.5, young 200.6±50.9
Procedure: as §1
(§7) By contrast, smilagenin and sarsasapogenin treatment in aged rats for 3 months restored the D1 and D2 receptor density (smilagenin 177±10.9; 217±45.7 fmol/mg protein; sarsasapogenin 172.0±44.0; 206.4±60.5 respectively).

[7] = tested on: rat primary spinal motor neurones; test: Glutamate-induced neurodegeneration in spinal motor neurones (LDH); type: cell-based; conditions: control 100 ± 1
Procedure: The objective of this study was to examine the effects of sarsasapogenin and smilagenin on the survival of rat primary spinal motor neurones exposed to glutamate, which is known to induce neurodegeneration in this model of motor neurodegeneration.
Rat motor neurones were prepared according to the method described by (Martinou et al, Neuron, 8, 737-744, 1992). On day 10, medium was removed and the cultures were exposed to glutamate (4 microM) for 10 min at 37° C. in defined medium. After the glutamate exposure, cultures were washed with Dulbecco modified Eagle medium at 37° C. then placed in fresh culture medium containing test compounds. After 48 h, the extent of spinal motor neurone degeneration was determined by measuring the amount of lactate dehydrogenase (LDH) released into the culture medium as above.

[8] = tested on: rat mesencephalic dopaminergic neurones; test: Pre-treatment of dopaminergic neurones before MPP+ exposure (neuronal survival); type: cell-based; conditions: pre-treatment 30 nM; MPP+ 2 μM; MPP+ alone 55 ± 3
From the text: Smilagenin and sarsasapogenin prevent the neurodegeneration caused by exposure to the neurotoxin, 1-methyl-4-phenylpyridinium (MPP^+) in rat mesencephalic dopaminergic neurones; a model of Parkinson's disease in vitro.
Glial cell line-derived neurotrophic factor (GDNF) and brain-derived neurotrophic factor (BDNF), molecules that are involved in neuronal growth, were used as positive controls.

[9] = tested on: rat primary cortical neurones; test: Reversal of glutamate-induced neurodegeneration (LDH), treatment after glutamate exposure; type: cell-based; conditions: LDH after 24 h, control = 100
Procedure: as §6
As above mentioned, exposure of rat primary cortical cultures to glutamate (100 μM; 10 min) caused an increase in lactate dehydrogenase (LDH) activity measured after 24 h, indicating a significant neurodegeneration.

BDNF = BDNF levels in aged rats; type: in vivo, rat; conditions: aged rats treated 3 months; aged untreated 1.205±0.219, young 1.647±0.277
Procedure: as §1

[10] = tested on: rat mesencephalic dopaminergic neurones; test: Treatment of dopaminergic neurones after MPP+ exposure (survival, neurites); type: cell-based; conditions: MPP+ 2 μM
From the text: Smilagenin and sarsasapogenin also reverse the neurodegeneration caused by exposure to the neurotoxin 1-methyl-4-phenylpyridinium (MPP^+) in rat mesencephalic dopaminergic neurones; a model of Parkinson's disease in vitro.
Glial cell line-derived neurotrophic factor (GDNF) and brain-derived neurotrophic factor (BDNF), molecules that are involved in neuronal growth, and 17β-oestradiol were used as positive controls. Treatment with smilagenin and sarsasapogenin produced a significant increase in the neuronal survival compared to neurones exposed to MPP^+ alone (Table 8).
Exposure to MPP^+ caused not only a significant decrease in dopaminergic number but also in the percentage of neurites.

dopamine (D) 1 receptor = test: Dopamine D1 receptor density in aged rats; type: in vivo, rat; conditions: aged rats treated 3 months; aged untreated 129.2±36.8, young 157.5±33.2
Procedure: as §1, §7

## CCOC(=O)O[C@@H]1CC[C@@]2(C)[C@H](CC[C@@H]3[C@@H]2CC[C@]2(C)[C@@H]4[C@H](C[C@@H]32)O[C@]2(CC[C@H](C)CO2)[C@H]4C)C1 [episarsasapogenin cathylate]
[1]
  Muscarinic acetylcholine receptor density in brain: significantly restored
[2]
  M receptor density: 877 ± 89* fmol/mg/protein
[3]
  Learning and memory Step through test Error No: 1.36 ± 0.92*
Aged Sprague-Dawley rats
  Learning and memory ability (Y-maze): restored the learning and memory ability
[4]
  Prevention of glutamate-induced neurodegeneration, Mean ± s.e.m (%): 74 ± 3%

## C[C@H]1CC[C@@]2(OC1)O[C@H]1C[C@H]3[C@@H]4CC[C@@H]5C[C@@H](O)CC[C@]5(C)[C@H]4CC[C@]3(C)[C@H]1[C@@H]2C [sarsasapogenin]
[5]; 0.3 pM
  Number of neurones displaying neurites, Mean ± s.e.m (%): 55 ± 2%
  Neurite length measured using optical micrometry, Mean ± s.e.m (%): 177 ± 5%
[5]; 3 pM
  Number of neurones displaying neurites, Mean ± s.e.m (%): 61 ± 1%
  Neurite length measured using optical micrometry, Mean ± s.e.m (%): 197 ± 5%
[5]; 30 pM
  Number of neurones displaying neurites, Mean ± s.e.m (%): 62 ± 2%
  Neurite length measured using optical micrometry, Mean ± s.e.m (%): 211 ± 6%
[6]; oral administration
  Behavioural deficits: improve the behavioural deficits
[6]; oral administration (FIG. 6)
  Lifespan (survival): increase the lifespan
Dopamine (D) 2 receptor
  D2 receptor density: 206.4±60.5 fmol/mg protein
[7]; 0.03 nM for 48 h after glutamate 4 microM 10 min
  Glutamate-induced neurodegeneration in spinal motor neurones, Mean ± s.e.m (%): 123 ± 2%
[7]; 3 nM for 48 h after glutamate 4 microM 10 min
  Glutamate-induced neurodegeneration in spinal motor neurones, Mean ± s.e.m (%): 137 ± 1%
[7]; 300 nM for 48 h after glutamate 4 microM 10 min
  Glutamate-induced neurodegeneration in spinal motor neurones, Mean ± s.e.m (%): 136 ± 6%
[8]
  Dopaminergic neurones after MPP+ exposure (survival), Mean ± s.e.m (%): 89 ± 3%
[9]; 3 nM after glutamate 100 μM 10 min
  Cortical neurones previously exposed to glutamate, Mean ± s.e.m (%): 101 ± 3%
[9]; 30 nM after glutamate 100 μM 10 min
  Cortical neurones previously exposed to glutamate, Mean ± s.e.m (%): 112 ± 1%
BDNF
  BDNF levels: 1.410±0.232 ng/g tissue
[1]
  Muscarinic acetylcholine receptor density in brain: significantly restored
[10]; 0.03 nM, control 41 ± 4, MPP+ alone 27 ± 5
  Percentage of neurites in dopaminergic neurones after MPP+ exposure, Mean ± s.e.m (%): 43 ± 4%
[10]; treatment 0.03 nM, MPP+ alone 76 ± 4
  Dopaminergic neurones after MPP+ exposure (survival), Mean ± s.e.m (%): 112 ± 6%
Aged Sprague-Dawley rats
  Learning and memory ability (Y-maze): restored the learning and memory ability
Dopamine (D) 1 receptor
  D1 receptor density: 172.0±44.0 fmol/mg protein
[4]
  Prevention of glutamate-induced neurodegeneration, Mean ± s.e.m (%): 79 ± 3%
